Results as given in patent US10561681B2, “Antimetastatic 2H-selenopheno[3,2-h]chromenes, synthesis thereof, and methods of using same agents” (Latvian Institute of Organic Synthesis, priority 2016, dated 2020).
Values joined by “and” are separate entries in the source; they are usually repeats but may differ in a detail not shown here. Equal values may be shown once. Read-outs that look alike come from different tables or passages of the source. Marks after values point to notes of the source that are not given here.

Tests used:
[1] = test system: malignant tumor cells; test: In vitro cytotoxicity on monolayer tumor cell lines (panel, summary in words); type: cell-based; conditions: summary of Table 1
Method: Anticancer activity of selenopheno[h]chromenes was tested in vitro using cytotoxicity assay. Thus, monolayer tumor cell lines MDA-MB-435s (human melanoma), MCF-7 (human breast adenocarcinoma, estrogen-positive), MES-SA (human uterus sarcoma), HT-1080 (human fibrosarcoma), A549 (human lung carcinoma), SH-SY5Y (human neuroblastoma), CCL-8 (mouse sarcoma), MG-22A (mouse hepatoma), and HepG2 (human hepatocellular carcinoma) were cultured in standard medium DMEM (Dulbecco's modified Eagle's medium) (“Sigma”) supplemented with 10% fetal bovine serum (“Sigma”). About 2-9·10^4 cells/mL (depending on line nature) were placed in 96-well plates immediately after compounds were added to the wells. Untreated cells were used as a control. The plates were incubated for 72 h, 37° C., 5% CO2. The number of surviving cells was determined using 3-(4,5-dimethylthiazol-2-yl)-2,5-diphenyltetrazolinium bromide (MTT). MTT-test: after incubating culture medium was removed and 200 μL fresh medium with 10 mM HEPES was added in each well of the plate, than 20 μL MTT (2 mg/mL in HBSS) was added. After incubation (3 hr, 37° C., 5% CO2), the medium with MTT was removed and 200 μL DMSO were added at once to each sample. The samples were tested at 540 nm on Anthos HT II photometer.

[2] = test system: MES-SA (human uterus sarcoma); test: In vitro cytotoxicity, MTT test; type: cell-based; conditions: 72 h, read-out: Cytotoxicity IC50, MES-SA
Method: (§1) Anticancer activity of selenopheno[h]chromenes was tested in vitro using cytotoxicity assay. […] About 2-9·10^4 cells/mL (depending on line nature) were placed in 96-well plates immediately after compounds were added to the wells. Untreated cells were used as a control. The plates were incubated for 72 h, 37° C., 5% CO2. The number of surviving cells was determined using 3-(4,5-dimethylthiazol-2-yl)-2,5-diphenyltetrazolinium bromide (MTT). MTT-test: after incubating culture medium was removed and 200 μL fresh medium with 10 mM HEPES was added in each well of the plate, than 20 μL MTT (2 mg/mL in HBSS) was added. After incubation (3 hr, 37° C., 5% CO2), the medium with MTT was removed and 200 μL DMSO were added at once to each sample. The samples were tested at 540 nm on Anthos HT II photometer.

[3] = test system: HepG2 (human hepatocellular carcinoma); test: In vitro cytotoxicity, MTT test; type: cell-based; conditions: read-out: Cytotoxicity IC50, HepG2
Method: as §1

[4] = test system: A549 (human lung carcinoma); test: In vitro cytotoxicity, MTT test; type: cell-based; conditions: Homo sapiens, A549, 72 h, read-out: Cytotoxicity IC50, A549
Method: as §1

[5] = test system: MCF-7 (human breast adenocarcinoma, estrogen-positive); test: In vitro cytotoxicity, MTT test; type: cell-based; conditions: read-out: Cytotoxicity IC50, MCF-7
Method: as §1

[6] = test system: MG-22A (mouse hepatoma); test: In vitro cytotoxicity, MTT test; type: cell-based; conditions: 72 h, read-out: Cytotoxicity IC50, MG-22A
Method: as §1

[7] = test system: MDA-MB-435s (human melanoma); test: In vitro cytotoxicity, MTT test; type: cell-based; conditions: 72 h, read-out: Cytotoxicity IC50, MDA-MB-435s
Method: as §1

[8] = test system: HT-1080 (human fibrosarcoma); test: In vitro cytotoxicity, MTT test; type: cell-based; conditions: read-out: Cytotoxicity IC50, HT-1080
Method: as §1

[9] = test system: SH-SY5Y (human neuroblastoma); test: In vitro cytotoxicity, MTT test; type: cell-based; conditions: Homo sapiens, SH-SY5Y, 72 h, read-out: Cytotoxicity IC50, SHSY5Y
Method: as §1

[10] = test system: CCL-8 (mouse sarcoma); test: In vitro cytotoxicity, MTT test; type: cell-based; conditions: 72 h, read-out: Cytotoxicity IC50, CCL-8
Method: as §1

[11] = Basal cytotoxicity test, Neutral Red Uptake (NRU) assay; type: cell-based; conditions: for LD50 at 24 h: mouse, po, acute oral LD50 calculated from 3T3 NRU IC50 by regression formula, read-out: Basal cytotoxicity Estimated* LD50; for IC50 at 24 h: normal mouse embryo fibroblasts, read-out: Cytotoxicity IC50, 3T3
Method: In parallel, the borderline concentration relevant to the highest tolerated dose has been determined for each compound using the NIH 3T3 (mouse embryo fibroblasts) cell line and the basal cytotoxicity obtained has then been used to predict the starting doses for in vivo acute oral LD50 values in rodents.
the Neutral Red Uptake (NRU) assay was performed according to the standard protocol of Stokes modified by the NICEATM-ECVAM validation study. The NRU cytotoxicity assay procedure is based on the ability of viable cells to incorporate and bind Neutral Red, a supravitally dye. Balb/c 3T3 (Mouse Swiss Albino embryo fibroblast) cells (9000 cells/well) were placed into 96-well plates for 24 h in Dulbecco's modified Eagle's (DMEM) medium containing 5% fetal bovine serum. The cells were then exposed to the test compounds over a range of […] concentrations (1000, 316, 100, 31, 10, 3, 1 μg/ml) for 24 h. Untreated cells were used as a control. After 24 h, the medium was removed from all plates. Then, 250 μL of Neutral Red solution were added (0.05 mg/mL NR in DMEM 24 h pre-incubated at 37° C. and then filtered before use through 0.22-μm syringe filter). Plates were incubated for 3 h and then cells were washed three times with PBS. The dye within viable cells was released by extraction with a mixture of acetic acid, ethanol and water (1:50:49). Absorbance of Neutral Red was measured using a spectrophotometer multiplate reader (TECAN, Infinite M1000) at 540 nm. The percentage of living cells was calculated using the formula: OD (treated cells)*100/OD (control cells). The IC50 values were calculated using the programme Graph Pad Prism® 3.0.
Data from the in vitro tests were used for estimating the starting dose for acute oral systemic toxicity tests in rodents. […] The value is recalculated to mg/kg and compounds are evaluated in accordance with four toxicity categories: category 1: LD50≤5 mg/kg (highly toxic); category 2: 5<LD50≤50 mg/kg (moderately toxic); category 3: 50<LD50≤300 mg/kg (slightly toxic); category 4: 300<LD50≤2 000 mg/kg (practically non-toxic).

[12] = test system: 4T1 carcinoma cells; test: 4T1 model of lung metastasis (tail vein) in Balb/c mice; type: in vivo, mouse; conditions: for Spleen weight increase: 4T1 i.v., control with tumor +147%; for % of the total area occupied by metastases, % (control = 100) / % of the total area occupied by metastases, Mean ± SD: s.c., days 1, 4, 7, 9, 11, 14
Method: Compounds were administered s.c. at 1, 4, 7, 9, 11 and 14th days. 4T1 cells (10,000/0.1 ml PBS) were injected i.v. into syngeneic mice. The metastasis at day 16 are shown for each mouse, and averages are provided for illustration.
Balb/c mice were injected with 100,000 4T1 […] cancer cells into the tail vein and treatment started 24 hr later with subcutaneous (s.c.), intraperitoneal (i.p.) injections or oral administration (p.o.) of compounds according to the following scheme: 1, 4, 7, 9, 11 and 14th days in dose 20 or 40 mg/kg. Compounds were dissolved in DMSO and the solution were diluted by water (DMSO final concentration <1%). Mice in the control group were similarly given doses of 0.1 mL of water with DMSO. Twenty-one days later, all mice were anesthetized with ketamine/xylazine and euthanized, the mice were sacrificed spleens were excised from the mice and weighed. In each experiment, mice were weighed twice weekly.
(Lewis et al, Cancer Res, 2005, 65) Pulmonary metastases were enumerated by intra-tracheal injection of India ink (15% India Ink, 85% water, 3 drops NH4OH/100 ml). India ink injected lungs were washed in Feket's solution (300 ml 70% EtOH, 30 ml 37% formaldehyde, 5 ml glacial acetic acid) and then placed fresh Feket's solution overnight. […] White tumor nodules against a black lung background were measured.

## Cl.O=C(O)c1cc2ccc3c(Br)c(CN4CCOCC4)[se]c3c2oc1=O [Compound I-14, 7-Bromo-2-oxo-8-(morpholin-1-ylmethyl)-2H-selenopheno[3,2-h]chromene-3-carboxylic acid hydrochloride]
[1]
  Cytotoxicity on cancer cell lines: remained cytotoxicity on cancer cell lines
[2]
  IC50: 65 ± 6 µM
[3]; HepG2, 72 h
  IC50: 106 ± 9 µM
[4]
  IC50: 51 ± 8 µM
[5]; MCF7, 72 h
  IC50: 95 ± 9 µM
[6]
  IC50: 59 ± 2 µM
[7]
  IC50: 156 ± 9 µM
[8]; HT-1080, 72 h
  IC50: 100 ± 6 µM
[9]
  IC50: 35 ± 9 µM
[10]
  IC50: 79 ± 9 µM
[11]
  LD50 at 24 h: 1320 mg/kg and 2600 µmol/kg
  IC50 at 24 h: 43 ± 2 µM

## CN1CCN(Cc2[se]c3c(ccc4cc(C(=O)O)c(=O)oc43)c2Br)CC1.Cl [Compound I-15, 7-Bromo-8-/(4-methylpiperazin-1-yl/methyl)-2-oxo-2H-selenopheno[3,2-h]chromene-3-carboxylic acid hydrochloride]
[1]
  Cytotoxicity on cancer cell lines: low toxic to the cancer cell lines
[2]
  IC50: > 117 µM
[3]; HepG2, 72 h
  IC50: > 192 µM
[4]
  IC50: > 192 µM
[5]; MCF7, 72 h
  IC50: > 192 µM
[6]
  IC50: 186 ± 7 µM
[7]
  IC50: > 122 µM
[8]; HT-1080, 72 h
  IC50: > 192 µM
[9]
  IC50: > 192 µM
[10]
  IC50: > 122 µM
[11]
  LD50 at 24 h: 3200 µmol/kg and 1670 mg/kg
  IC50 at 24 h: 192 ± 7 µM
[12]; dose 20 mg/kg
  Spleen weight increase: 55%
[12]; dose 40 mg/kg
  Spleen weight increase: 14%
[12]; five mice per group
  Prevention of formation of 4T1 carcinoma lung metastasis: 98%
[12]; 20 mg/kg
  % of the total area occupied by metastases, % (control = 100): 4* %
[12]; 20 mg/kg, control 50 ± 33
  % of the total area occupied by metastases, Mean ± SD: 2 ± 2%
[12]; 40 mg/kg
  % of the total area occupied by metastases, % (control = 100): 1* %
  % of the total area occupied by metastases, Mean ± SD: 0 ± 1%

## O=C(c1cc2ccc3c(Br)c(C4=CCCCC4)[se]c3c2oc1=O)N1CCCCC1 [Compound I-19, 7-Bromo-8-(cyclohex-1-en-1-yl)-3-(piperidine-1-carbonyl)-2H-selenopheno[3,2-h]chromen-2-one]
[2]; MTT
  IC50: 105 ± 4 µM
[3]; HepG2, MTT, 72 h
  IC50: 103 ± 15 µM
[4]; MTT, 72 h
  IC50: 100 ± 3 µM
[5]; MCF7, MTT, 72 h
  IC50: 125 ± 8 µM
[6]; MTT
  IC50: 41 ± 2 µM
[7]; MTT
  IC50: 51 ± 8 µM
[8]; HT-1080, MTT, 72 h
  IC50: 50 ± 5 µM
[9]; MTT
  IC50: > 117 µM
[10]; MTT
  IC50: > 193 µM
[11]
  LD50 at 24 h: 1000 µmol/kg and 500 mg/kg
  IC50 at 24 h: 161 ± 23 µM

## O=C(c1cc2ccc3c(Br)c(C4=CCCCC4)[se]c3c2oc1=O)N1CCOCC1 [Compound I-20, 7-Bromo-8-(cyclohex-1-en-1-yl)-3-(morpholine-1-carbonyl)-2H-selenopheno[3,2-h]chromen-2-one]
[2]; MTT
  IC50: 61 ± 4 µM
[3]; HepG2, MTT, 72 h
  IC50: 63 ± 6 µM
[4]; MTT, 72 h
  IC50: 38 ± 5 µM
[5]; MCF7, MTT, 72 h
  IC50: 81 ± 7 µM
[6]; MTT
  IC50: 117 ± 7 µM
[7]; MTT
  IC50: 13 ± 1 µM
[8]; HT-1080, MTT, 72 h
  IC50: 92 ± 12 µM
[9]; MTT
  IC50: > 117 µM
[10]; MTT
  IC50: 126 ± 4 µM
[11]
  LD50 at 24 h: 3000 µmol/kg and 1600 mg/kg
  IC50 at 24 h: > 192 µM

## COCCN(CCOC)C(=O)c1cc2ccc3c(Br)c(C4=CCCCC4)[se]c3c2oc1=O [Compound I-21, 7-Bromo-8-(cyclohex-1-en-1-yl)-N,N-bis(2-methoxyethyl)-2-oxo-2H-selenopheno[3,2-h]chromene-3-carboxamide]
[2]; MTT
  IC50: 73 ± 3 µM
[3]; HepG2, MTT, 72 h
  IC50: 51 ± 7 µM
[4]; MTT, 72 h
  IC50: 61 ± 6 µM
[5]; MCF7, MTT, 72 h
  IC50: 92 ± 12 µM
[6]; MTT
  IC50: 46 ± 6 µM
[7]; MTT
  IC50: 76 ± 4 µM
[8]; HT-1080, MTT, 72 h
  IC50: 51 ± 1 µM
[9]; MTT
  IC50: 139 ± 6 µM
[10]; MTT
  IC50: 100 ± 8 µM
[11]
  LD50 at 24 h: 700 µmol/kg and 384 mg/kg
  IC50 at 24 h: 131 ± 7 µM

## COC1(c2[se]c3c(ccc4cc(C(=O)N5CCOCC5)c(=O)oc43)c2Br)CCCCC1 [Compound I-22, 7-Bromo-8-(1-methoxycyclohexyl)-3-(morpholine-4-carbonyl)-2H-selenopheno[3,2-h]chromen-2-one]
[2]; MTT
  IC50: 41 ± 2 µM
[3]; HepG2, MTT, 72 h
  IC50: 47 ± 2 µM
[4]; MTT, 72 h
  IC50: 43 ± 4 µM
[5]; MCF7, MTT, 72 h
  IC50: 18 ± 2 µM
[6]; MTT
  IC50: 37 ± 1 µM
[7]; MTT
  IC50: 43 ± 3 µM
[8]; HT-1080, MTT, 72 h
  IC50: 38 ± 2 µM
[9]; MTT
  IC50: 98 ± 3 µM
[10]; MTT
  IC50: 39 ± 3 µM
[11]
  LD50 at 24 h: 300 µmol/kg and 195 mg/kg
  IC50 at 24 h: 47 ± 4 µM
